# Data taken from paper PMC9065877, “Safety, tolerability and pharmacokinetics of the oligomer modulator anle138b with exposure levels sufficient for therapeutic efficacy in a murine Parkinson model: A randomised, double-blind, placebo-controlled phase 1a trial” (EBioMedicine, 2022).
# Read-outs that look alike come from different tables or passages of the source.
# Columns and labels:
# [1] = Single ascending dose (SAD) oral pharmacokinetics of anle138b in healthy subjects, plasma; type: in vivo, human; conditions: for AUC(0-t) / Cmax: human, plasma, fasted, geometric mean (CV%); for AUC(0-t): read-out: AUC(0-24)
# Description: This was a single-centre, double-blind, randomised, placebo-controlled single ascending dose (SAD) and multiple ascending dose (MAD) study of anle138b in doses of up to 300 mg per day in healthy subjects. In addition, the effect of food (FES) on the PK of anle138b in healthy subjects was examined using single doses of 150 mg. Participants were recruited from Quotient Sciences (Nottingham, UK) volunteer database.
# As a safety precaution, sentinel dosing was performed for all SAD and MAD cohorts. In SAD, subjects received a single dose of anle138b or placebo after fasting from all food and drink (except water) for a minimum of 8 h prior to dosing. The dosing in the four SAD-cohorts were 50 mg, 100 mg, 200 mg and 300 mg of free anle138b equivalent, respectively. In the MAD part, participants received anle138b or placebo once daily (QD) for 7 days after fasting from all food and drink (except water) for a minimum of 8 h prior to dosing. The dosing in the three MAD-cohorts was 100 mg, 200 mg and 300 mg of free anle138b equivalent, respectively. Post dosing mouth and hand checks were conducted to ensure the capsules were swallowed. In-study decisions regarding continuation and dose escalation were made by the safety advisory committee (SAC) comprising the principal investigator, the sponsor's medical monitor and a PK expert. For dose escalation to proceed, data needed to be available from a minimum of 6 subjects per cohort with completed per protocol safety and PK assessments up to 48 h after dosing to ensure at least 4 subjects had received active IMP. The decision to proceed to the next higher dose level was based on safety, tolerability and available PK data to 48 h post-dose. The following data were required: Adverse events, vital signs, safety laboratory, ECG, physical examinations, plasma concentrations of anle138b with interim PK parameter estimations (Tmax, Cmax, AUC(0-24), AUC(0-tau), AUC(0-last) and T½, where applicable). Data were provided to the SAC in accordance with Quotient Sciences’ standard operating procedure (SOP) on interim dose decision-making and dose escalation.
# Secondary outcome measures were the oral PK of single (SAD) and multiple (MAD) ascending doses of anle138b in the fasted state as well as the effect of co-administration with food on the PK of anle138b. To this end PK blood samples were taken at day 1 (and for MAD day 7) pre-dose and at 0·5, 1, 1·5, 2, 3, 4, 6, 8, 10, 12, 16 and 20 h post-dose, at days 2 to 6 pre-dose only (MAD) and 24, 30, 36 and 48 h post final dose. Analysis of anle138b in plasma was done at Aptuit, an Evotec company, in Verona, Italy. Time point of last quantifiable data was seen to increase with an increase in dose as follows: SAD: from the 50mg dose (subjects ranged between 8-24h) to the 300mg dose (subjects ranged between 36-48h). MAD: from the 100mg dose (subjects ranged between 8-36h) to the 300mg dose (subjects ranged between 20-48h). In FES, subjects ranged between 24-48h.
# The study was exploratory and no formal sample size calculation was made. Based on experience from previous studies of similar design, eight subjects per cohort were enrolled for parts 1 (SAD) and 2 (MAD) and a total of twelve subjects for part 3 (FES). Populations and analysis sets were determined for safety and PK data after database lock using the criteria defined in the reporting and analysis plan. The safety population and safety analysis set for SAD and MAD were defined after database lock but prior to study unblinding. Statistical analysis and production of summary tables, figures and listings for all safety data (AEs, vital signs, ECGs and safety laboratory assessments) including changes from baseline as required in this study were performed using the statistical package SAS (v9·4). Additional statistics was provided for PK-related data including coefficient of variation (CV%), geometric mean, geometric CV%, and the number n of subjects that were included in the natural logarithmic transformation). […]
# [2] = 28-day toxicity study in rats; conditions: rat, in vivo; for Cmax: at 50 mg, read-out: Cmax at NOAEL
# Source text: This trial followed the recommendations of the EMA (European Medicines Agency) (EMEA/CHMP/SWP/28367/07 Rev. 1; 20 July 2017) and the FDA (Food and Drug Administration) (Guidance for Industry: Estimating the Maximum Safe Starting Dose in Initial Clinical Trials for Therapeutics in Adult Healthy Volunteers. U.S. Department of Health and Human Services Food and Drug Administration Center for Drug Evaluation and Research (CDER) July 2005) for dose finding in a first-in-human study. The safe starting dose was set based on toxicity studies in animals. In a 28-day toxicity study in rats, the no-observed-adverse-effect-level (NOAEL) was determined to be 50 mg/kg/day (human equivalent dose of 8·1 mg/kg using the FDA factor of 6·2 according to the FDA Guidance for Industry “Estimating the Maximum Safe Starting Dose in Initial Clinical Trials for Therapeutics in Adult Healthy Volunteers”). Cmaxǀexposure at 50 mg in males were 2460ǀ25600 and in females 2680ǀ21700 ng/mL ǀ ng*h/mL. In a 28-day cynomolgus monkey toxicity study, the NOAEL was 125 mg/kg/day (human equivalent dose of 40·3 mg/kg). Cmaxǀexposure at 125 mg/kg/day were 3170ǀ15700 (males) and 2720ǀ9720 (females) ng/mL ǀ ng*h/mL. Based upon these NOAELs a safe starting dose derived from the more sensitive species (rat) was calculated using a safety factor of 10 (i.e., 0·8 mg/kg), which corresponds to a dose of approximately 50 mg assuming a body weight of 60 kg. […] Escalation between doses was planned to be flexible depending on emerging results but not to exceed an increment of 2-fold.
# [3] = SAD Cohort B 100 mg single oral dose
# [4] = SAD Cohort C 200 mg single oral dose
# [5] = SAD Cohort D 300 mg single oral dose
smiles,measurement,setting,value
"Brc1cccc(-c2cc(-c3ccc4c(c3)OCO4)n[nH]2)c1 [anle138b, 3-(1,3-benzodioxol-5-yl)-5-(3-bromophenyl)-1H-pyrazole]",Time point of last quantifiable data (range of subjects),[1]; SAD 50mg dose,8 to 24 h
same,Time point of last quantifiable data (range of subjects),[1]; SAD 300mg dose,36 to 48 h
same,AUC(0-t),[1]; SAD Cohort A 50 mg single oral dose,113 ng·h/mL
same,Cmax,[1]; [3],156 ng/mL
same,AUC(0-t),[1]; [3],366 ng·h/mL
same,Cmax,[1]; [4],458 ng/mL
same,AUC(0-t),[1]; [4],1090 ng·h/mL
same,Cmax,[1]; [5],704 ng/mL
same,AUC(0-t),[1]; [5],1650 ng·h/mL
same,Achievement of potential therapeutic exposure (based upon nonclinical in vivo models),[1]; single 100 mg dose,already achieved after single 100 mg dose
same,Cmax,"[2]; female, females",2680 ng/mL
same,Cmax,"[2]; male, males",2460 ng/mL
same,NOAEL at 28 days,"[2]; 28-day toxicity study, read-out: no-observed-adverse-effect-level (NOAEL)",50 mg/kg/day
